The target of assay [1] is T1, Tubulin (Homo sapiens) (UniProt P68371+Q9H4B7+P0DPH7+P68366+Q13509+Q71U36+P04350+Q3ZCM7+P07437+P68363+Q9BQE3+Q6PEY2+Q13885+Q9BVA1+Q9BUF5). As to the kind of experiment: Inhibition of tubulin in human NCI-H460 cells assessed as inhibition of microtubule polymerization at 10 nM after 24 hrs by immunofluorescence assay. The format is cell-based.
In assay [2] the test system is NCI-H460. The experiment in a line: Cytotoxicity against human NCI-H460 cells assessed as reduction in cell viability after 72 hrs by MTT assay. The format is functional, cell-based. As to conditions: NCI-H460, 72 h. (In general: Formazan colour is commonly taken as a measure of viable cells.)
Assay [3] relates to BXPC-3. As to the kind of experiment: Cytotoxicity against human BxPC3 cells assessed as reduction in cell viability incubated for 72 hrs by MTT assay. The format is functional, cell-based. Conditions: BXPC-3, 72 h.
The test system of assay [4] is HT-29. As to the kind of experiment: Cytotoxicity against human HT-29 cells assessed as reduction in cell viability after 72 hrs by MTT assay. As to conditions: HT-29, 72 h. In kind it is functional, cell-based.
Assay [5] has as its target T1, Tubulin (Homo sapiens). The experiment in a line: Inhibition of tubulin in human NCI-H460 cells assessed as inhibition of microtubule polymerization at 2 nM after 24 hrs by immunofluorescence assay. The format is cell-based.

pIC50: −log10 of the molar value. Activity calls are given as the source filed them. The calls are words filed in the database; no cut-off is given here.

Regarding `CC(C)c1[nH]cnc1/C=c1\[nH]c(=O)/c(=C/c2cccc(C(=O)c3ccc(F)cc3)c2)[nH]c1=O`, the inhibition result in assay [1] is “Active”. Besides, the negative logarithm of the IC50 (pIC50) in assay [2] was 8.49; in assay [3], 9.22; in assay [4] it was 9.10.

With `O=c1[nH]/c(=C\c2ncc[nH]2)c(=O)[nH]/c1=C\c1cccc(Oc2ccc(F)cc2)c1`, the negative logarithm of the IC50 (pIC50) in assay [2] was less than 6.00.

As for `O=c1[nH]/c(=C\c2cc3ccccc3o2)c(=O)[nH]/c1=C\c1cccc(Oc2ccc(F)cc2)c1`, the pIC50 in assay [2] is 6.46.

As for `O=c1[nH]/c(=C\c2cccs2)c(=O)[nH]/c1=C\c1cccc(Oc2ccc(F)cc2)c1`, the pIC50 in assay [2] was less than 6.00.

In the case of `O=C(c1ccc(F)cc1)c1cccc(/C=c2\[nH]c(=O)/c(=C/c3c[nH]cn3)[nH]c2=O)c1`, the pIC50 in assay [2] was 6.56; in assay [3] it was 8.37; in assay [4] it was 8.29.

Take `O=c1[nH]/c(=C\c2nc3ccccc3[nH]2)c(=O)[nH]/c1=C\c1cccc(Oc2ccc(F)cc2)c1`: the pIC50 in assay [2] is less than 6.00.

`O=c1[nH]/c(=C\c2cccc(Oc3ccc(F)cc3)c2)c(=O)[nH]/c1=C\c1ccccc1`: the pIC50 in assay [2] was 6.41.

Take `O=c1[nH]/c(=C\c2ccc(Br)o2)c(=O)[nH]/c1=C\c1cccc(Oc2ccc(F)cc2)c1`: the pIC50 in assay [2] is 6.44.

As for `CC(C)(C)c1[nH]cnc1/C=c1\[nH]c(=O)/c(=C/c2cccc(Oc3ccc(F)cc3)c2)[nH]c1=O`, in assay [1], the inhibition entry is “Active”. For the same compound, the pIC50 is 8.49 in assay [3] and 8.68 in assay [4].

For `O=c1[nH]/c(=C\c2ccc(Cl)o2)c(=O)[nH]/c1=C\c1cccc(Oc2ccc(F)cc2)c1`, the pIC50 in assay [2] was 6.74.

Consider `O=c1[nH]/c(=C\c2ccccn2)c(=O)[nH]/c1=C\c1cccc(Oc2ccc(F)cc2)c1`, for which the negative-log IC50 (pIC50) in assay [2] is 7.31.

With `Cc1[nH]cnc1/C=c1\[nH]c(=O)/c(=C/c2cccc(Oc3ccc(F)cc3)c2)[nH]c1=O`, the negative logarithm of the IC50 (pIC50) in assay [2] is 7.32.

As for `Cc1ccc(/C=c2\[nH]c(=O)/c(=C/c3cccc(C(=O)c4ccc(F)cc4)c3)[nH]c2=O)o1`, the pIC50 in assay [2] was 8.28; in assay [3] it was 8.43; in assay [4], 8.48.

As for `O=c1[nH]/c(=C\c2ccco2)c(=O)[nH]/c1=C\c1cccc(Oc2ccc(F)cc2)c1`, in assay [2], the pIC50 was 6.81.

In the case of `O=C(c1ccc(F)cc1)c1cccc(/C=c2\[nH]c(=O)/c(=C/c3nc[nH]c3C3CC3)[nH]c2=O)c1`, the pIC50 in assay [2] is 8.55; in assay [3] it was 8.85; in assay [4], 8.85.

Take `CC(C)(C)c1[nH]cnc1/C=c1\[nH]c(=O)/c(=C/c2ccccc2)[nH]c1=O` [PLINABULIN]: the inhibition result in assay [1] was “Active”. Further, the pIC50 in assay [3] is 8.24; in assay [4], 8.18.

On to `CC(C)(C)c1[nH]cnc1/C=c1\[nH]c(=O)/c(=C/c2cccc(C(=O)c3ccc(F)cc3)c2)[nH]c1=O`, for which the pIC50 in assay [3] and in assay [4] was 9.22 each time. For the same compound, the inhibition result in assay [5] was “Active”.

`O=c1[nH]/c(=C\C2CCCCC2)c(=O)[nH]/c1=C\c1cccc(Oc2ccc(F)cc2)c1`: the pIC50 in assay [2] was less than 6.00.

Regarding `O=c1[nH]/c(=C\c2nc[nH]c2C2CC2)c(=O)[nH]/c1=C\c1cccc(Oc2ccc(F)cc2)c1`, the results for the pIC50 in assay [2], in assay [3] and in assay [4] were 7.82, 8.03 and 8.13, respectively.

In the case of `CC(C)c1[nH]cnc1/C=c1\[nH]c(=O)/c(=C/c2cccc(Oc3ccc(F)cc3)c2)[nH]c1=O`, the inhibition entry in assay [1] is “Active”. For the same compound, the negative logarithm of the IC50 (pIC50) in assay [2] was 8.06; in assay [3] it was 8.47; in assay [4], 8.43.

For `O=c1[nH]/c(=C\c2c[nH]cn2)c(=O)[nH]/c1=C\c1cccc(Oc2ccc(F)cc2)c1`, the pIC50 in assay [2] was 6.32.

On to `COCc1ccc(/C=c2\[nH]c(=O)/c(=C/c3cccc(C(=O)c4ccc(F)cc4)c3)[nH]c2=O)o1`, for which the inhibition entry in assay [1] was “Active”. Besides, the pIC50 in assay [2] is 8.54; in assay [3], 8.70; in assay [4], 8.66.

Consider `O=c1[nH]/c(=C\c2ccc([N+](=O)[O-])o2)c(=O)[nH]/c1=C\c1cccc(Oc2ccc(F)cc2)c1`, for which the pIC50 in assay [2] is less than 6.00.

For the compound `Cc1ccc(/C=c2\[nH]c(=O)/c(=C/c3cccc(Oc4ccc(F)cc4)c3)[nH]c2=O)o1`, in assay [2], the pIC50 was 7.52.

Consider `O=c1[nH]/c(=C\c2ccc(CO)o2)c(=O)[nH]/c1=C\c1cccc(Oc2ccc(F)cc2)c1`, for which the pIC50 in assay [2] was 7.38.

For `Cc1[nH]cnc1/C=c1\[nH]c(=O)/c(=C/c2cccc(C(=O)c3ccc(F)cc3)c2)[nH]c1=O`, in assay [2], the pIC50 is 7.80.

In the case of `O=c1[nH]/c(=C\c2cccc(Oc3ccc(F)cc3)c2)c(=O)[nH]/c1=C\c1cccnc1`, the pIC50 in assay [2] was less than 6.00.

For `COCc1ccc(/C=c2\[nH]c(=O)/c(=C/c3cccc(Oc4ccc(F)cc4)c3)[nH]c2=O)o1`, in assay [1], the inhibition entry was “Active”. In addition, the pIC50 in assay [2] was 7.85; in assay [3], 8.18; in assay [4], 8.15.

What is called pIC50 is the negative decadic logarithm of the IC50, by convention in mol/L.

These data come from ChEMBL document CHEMBL4627367, “Structure-based design and synthesis of novel furan-diketopiperazine-type derivatives as potent microtubule inhibitors for treating cancer” (Bioorg Med Chem, 2020).
